# Read-outs that look alike come from different tables or passages of the source.
# What was measured:
# [1] = system: HCV replicon cells Huh 9B; assay: HCV replicon assay (luciferase readout); format: cell-based
# Procedure, shortened: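 Compounds, made up at twice final strength (final DMSO 1%), were added to subgenomic replicon cells one day after plating. Incubation then ran 72 h at 37 °C, 5% CO2, without G418. Replication was quantified as firefly luciferase luminescence in lysed cells, with cytotoxicity assessed on a duplicate clear plate.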
# [2] = system: HCV replicon cells Huh 9B; format: cell-based
# [3] = Hepatitis C virus, 72 h, concentration reducing replicon level (luciferase activity) by 50% vs untreated cell control, 72 h incubation
# [4] = concentration reducing total cell area by 50% relative to DMSO controls, methylene blue, absorbance 620 nm, 72 h incubation
Compound,IC50 [1],TD50 [2],"IC50 [1, 3]","TD50 [2, 4]"
"Cc1ccc(C(=O)NC2CC2)cc1-c1ccc(C(=O)Nc2ccc(N3CCOCC3)cc2)cc1 [Example 17, 6-Methyl-biphenyl-3,4′-dicarboxylic acid 3-cyclopropylamide 4′-[(4-morpholin-4-yl-phenyl)-amide]]",1000 to 5000 nM,* (key: * < 50 μM; ** > 50 μM),,
"Cc1ccc(C(=O)Nc2ccc(N3CCOCC3)cc2)cc1-c1ccc(C(=O)Nc2ccc3cn[nH]c3c2)cc1 [Example 67, 6-Methyl-biphenyl-3,4′-dicarboxylic acid 4′-[(1H-indazol-6-yl)-amide] 3-[(4-morpholin-4-yl-phenyl)-amide]]",< 1000 nM,** (key: * < 50 μM; ** > 50 μM),,
"Cc1cc(C(=O)Nc2ccc(N3CCOCC3)cc2)ccc1-c1cccc(C(=O)NCc2cccc(Cl)c2)c1 [Example 66, 2′-Methyl-biphenyl-3,4′-dicarboxylic acid 3-(3-chloro-benzylamide) 4′-[(4-morpholin-4-yl-phenyl)-amide]]",1000 to 5000 nM,* (key: * < 50 μM; ** > 50 μM),,
"Cc1ccc(C(=O)Nc2ccc(N3CCOCC3)cc2)cc1-c1ccc(C(=O)Nc2ccc(CN3CCNCC3)cc2)cc1 [Example 82, 6-Methyl-biphenyl-3,4′-dicarboxylic acid 3-[(4-morpholin-4-yl-phenyl)-amide] 4′-[(4-piperazin-1-ylmethyl-phenyl)-amide]]",1000 to 5000 nM,* (key: * < 50 μM; ** > 50 μM),,
"COc1cccc(C(=O)Nc2ccc(-c3cccc(C(=O)Nc4ccc(N5CCOCC5)cc4)c3)c(C)c2)c1 [Example 116, 4′-(3-Methoxy-benzoylamino)-2′-methyl-biphenyl-3-carboxylic acid (4-morpholin-4-yl-phenyl)-amide]",,,1000 to 5000 nM,* (* < 50 μM)
"CCOC(=O)c1cccc(NC(=O)c2ccc(-c3cc(C(=O)Nc4ccc(N5CCOCC5)cc4)ccc3C)cc2)c1 [Example 32, 3-{[2′-Methyl-5′-(4-morpholin-4-yl-phenylcarbamoyl) -biphenyl-4-carbonyl]-amino}-benzoic acid ethyl ester]",,,< 1000 nM,** (** > 50 μM)
"Cc1ccc(NC(=O)C2CCCCC2)cc1-c1ccc(C(=O)Nc2ccc(CN3CCCC3)cc2)cc1 [Example 227, 5′-(Cyclohexanecarbonyl-amino)-2′-methyl-biphenyl-4-carboxylic acid (4-pyrrolidin-1-ylmethyl-phenyl)-amide]",,,1000 to 5000 nM,* (* < 50 μM)
"Cc1ccc(C(=O)Nc2ccc(N3CCOCC3)cc2)cc1-c1ccc(C(=O)Nc2cccc(F)c2)cc1 [Example 27, 6-Methyl-biphenyl-3,4′-dicarboxylic acid 4′-[(3-fluoro-phenyl)-amide] 3-[(4-morpholin-4-yl-phenyl)-amide]]",1000 to 5000 nM,** (key: * < 50 μM; ** > 50 μM),,
"CCCS(=O)(=O)N1CCN(Cc2ccc(NC(=O)c3ccc(-c4cc(NC(=O)[C@@H]5CCCCN5)ccc4OC(F)(F)F)cc3)cc2)CC1 [Example 238, (S)-Piperidine-2-carboxylic acid (4′-{4-[4-(propane-1-sulfonyl)-piperazin-1-ylmethyl]-phenylcarbamoyl}-6-trifluoromethoxy-biphenyl-3-yl)-amide]",,,< 1000 nM,* (* < 50 μM)
"Cc1ccc(NC(=O)c2ccc(N3CCOCC3)cc2)cc1-c1ccc(C(=O)NCc2cccc(OC(F)(F)F)c2)cc1 [Example 92, 2′-Methyl-5′-(4-morpholin-4-yl-benzoylamino)-biphenyl-4-carboxylic acid 3-trifluoromethoxy-benzylamide]",,,1000 to 5000 nM,** (** > 50 μM)
"Cc1ccc(C(=O)Nc2ccc(N3CCOCC3)cc2)cc1-c1ccc(C(=O)NCc2ccsc2)cc1 [Example 40, 6-Methyl-biphenyl-3,4′-dicarboxylic acid 3-[(4-morpholin-4-yl-phenyl)-amide] 4′-[(thiophen-3-ylmethyl)-amide]]",1000 to 5000 nM,** (key: * < 50 μM; ** > 50 μM),,
"Cc1ccc(C(=O)Nc2ccc(N3CCOCC3)cc2)cc1-c1ccc(C(=O)Nc2cccnc2)cc1 [Example 36, 6-Methyl-biphenyl-3,4′-dicarboxylic acid 3-[(4-morpholin-4-yl-phenyl)-amide] 4′-pyridin-3-ylamide]",1000 to 5000 nM,* (key: * < 50 μM; ** > 50 μM),,
"O=C(Nc1ccc(CN2CCS(=O)(=O)CC2)cc1)c1ccc(-c2cccc(NC(=O)C3CCCCC3)c2)cc1 [Example 196, 3′-(Cyclohexanecarbonyl-amino)-biphenyl-4-carboxylic acid [4-(1,1-dioxo-1lambda*6*-thiomorpholin-4-ylmethyl)-phenyl]-amide]",,,1000 to 5000 nM,* (* < 50 μM)
"Cc1ccc(C(=O)Nc2ccc(N3CCOCC3)cc2)cc1-c1ccc(C(=O)Nc2cccc(C(C)O)c2)cc1 (stereo not shown) [Example 31, 6-Methyl-biphenyl-3,4′-dicarboxylic acid 4′-{[3-(1-hydroxy-ethyl)-phenyl]-amide} 3-[(4-morpholin-4-yl-phenyl)-amide]]",1000 to 5000 nM,** (key: * < 50 μM; ** > 50 μM),,
"Cc1ccc(NC(=O)N2CCOCC2)cc1-c1ccc(C(=O)Nc2ccc(CN3CCS(=O)(=O)CC3)cc2)cc1 [Example 152, Morpholine-4-carboxylic acid {4′-[4-(1,1-dioxo-1lambda*6*-thiomorpholin-4-ylmethyl)-phenylcarbamoyl]-6-methyl-biphenyl-3-yl}-amide]",,,< 1000 nM,** (** > 50 μM)
"Cc1ccc(C(=O)Nc2ccc(N3CCOCC3)cc2)cc1-c1ccc(C(=O)Nc2cccc(OC(F)(F)F)c2)cc1 [Example 25, 6-Methyl-biphenyl-3,4′-dicarboxylic acid 3-[(4-morpholin-4-yl-phenyl)-amide] 4′-[(3-trifluoromethoxy-phenyl)-amide]]",1000 to 5000 nM,* (key: * < 50 μM; ** > 50 μM),,
"Cc1ccc(NC(=O)c2ccc(N3CCOCC3)cc2)cc1-c1ccc(C(=O)Nc2ccc(CN3CCS(=O)(=O)CC3)cc2)cc1 [Example 87, 2′-Methyl-5′-(4-morpholin-4-yl-benzoylamino)-biphenyl-4-carboxylic acid [4-(1,1-dioxo-1lambda*6*-thiomorpholin-4-ylmethyl)-phenyl]-amide]",,,< 1000 nM,** (** > 50 μM)
"Cc1ccc(C(=O)Nc2ccc(N3CCOCC3)cc2)cc1-c1ccc(C(=O)N[C@H](CO)Cc2c[nH]c3ccccc23)cc1 [Example 51, 6-Methyl-biphenyl-3,4′-dicarboxylic acid 4′-{[(S)-1-hydroxymethyl-2-(1H-indol-3-yl)-ethyl]-amide} 3-[(4-morpholin-4-yl-phenyl)-amide]]",1000 to 5000 nM,** (key: * < 50 μM; ** > 50 μM),,
"CN(C)S(=O)(=O)N1CCN(Cc2ccc(NC(=O)c3ccc(-c4cc(NC(=O)NC5CCCCC5)ccc4Cl)cc3)cc2)CC1 [Example 255, 2′-Chloro-5′-(3-cyclohexyl-ureido)-biphenyl-4-carboxylic acid [4-(4-dimethylsulfamoyl-piperazin-1-ylmethyl]-phenyl}-amide]",,,< 1000 nM,* (* < 50 μM)
"Cc1ccc(-c2noc(C3CC3)n2)cc1-c1ccc(C(=O)Nc2ccc(CN3CCS(=O)(=O)CC3)cc2)cc1 [Example 205, 5′-(5-Cyclopropyl-[1,2,4]oxadiazol-3-yl)-2′-methyl-biphenyl-4-carboxylic acid [4-(1,1-dioxo-1lambda*6*-thiomorpholin-4-ylmethyl)-phenyl]-amide]",,,> 5000 nM,* (* < 50 μM)

# From US8008303B2, “Biphenyl derivatives and their use in treating hepatitis C” (AstraZeneca AB, priority 2005, dated 2011)
